The molecules below were run against T1, Ba/F3-FL-TYK2-P760L cells (Homo sapiens, UniProt P29597, P760L, cells depend on it) (assay: Anti-proliferative assay, Ba/F3-FL-TYK2-P760L cells (Cell-Titer Glo)). Conditions: 72 h, read-out: BaF3-FL-T2P760L IC50.
T1 construct: BaF3-FL-T2P760L (nM)
Type: cell-based
Method: Anti-Proliferative Assay Dimerization domain of Tel protein fused with JAK kinase domain was permanently transduced into Ba/F3 cells, whose proliferation is dependent on JAK activity in the absence of IL-3 induction. These engineered Ba/F3 cells (Ba/F3-FL-TYK2-[…], Ba/F3-TEL-TYK2 and Ba/F3-TEL-JAK2) were used to monitor JAK inhibitory activities of the compounds in the cellular. […] Cells were seeded at 2000/well of white flat bottom 96-well plates. The well containing medium only was used as background control. After 24 h growth, cells were treated with compounds. The test compounds were dissolved in DMSO to a stock concentration of 20 mM. 3-fold serially diluted compounds for 9 concentrations with top concentration of 20 μM was added into the each well. […] The cells continued to grow at 37° C. in 5% CO2 for 72 h after compound treatment. The viability was measured by cellular ATP determination using the Cell-Titer Glo luciferase reagent (Promega). The Luminescence value was recorded by a multi-label reader Envision (PerkinElmer).

T1 sequence (P29597 whole entry P760L): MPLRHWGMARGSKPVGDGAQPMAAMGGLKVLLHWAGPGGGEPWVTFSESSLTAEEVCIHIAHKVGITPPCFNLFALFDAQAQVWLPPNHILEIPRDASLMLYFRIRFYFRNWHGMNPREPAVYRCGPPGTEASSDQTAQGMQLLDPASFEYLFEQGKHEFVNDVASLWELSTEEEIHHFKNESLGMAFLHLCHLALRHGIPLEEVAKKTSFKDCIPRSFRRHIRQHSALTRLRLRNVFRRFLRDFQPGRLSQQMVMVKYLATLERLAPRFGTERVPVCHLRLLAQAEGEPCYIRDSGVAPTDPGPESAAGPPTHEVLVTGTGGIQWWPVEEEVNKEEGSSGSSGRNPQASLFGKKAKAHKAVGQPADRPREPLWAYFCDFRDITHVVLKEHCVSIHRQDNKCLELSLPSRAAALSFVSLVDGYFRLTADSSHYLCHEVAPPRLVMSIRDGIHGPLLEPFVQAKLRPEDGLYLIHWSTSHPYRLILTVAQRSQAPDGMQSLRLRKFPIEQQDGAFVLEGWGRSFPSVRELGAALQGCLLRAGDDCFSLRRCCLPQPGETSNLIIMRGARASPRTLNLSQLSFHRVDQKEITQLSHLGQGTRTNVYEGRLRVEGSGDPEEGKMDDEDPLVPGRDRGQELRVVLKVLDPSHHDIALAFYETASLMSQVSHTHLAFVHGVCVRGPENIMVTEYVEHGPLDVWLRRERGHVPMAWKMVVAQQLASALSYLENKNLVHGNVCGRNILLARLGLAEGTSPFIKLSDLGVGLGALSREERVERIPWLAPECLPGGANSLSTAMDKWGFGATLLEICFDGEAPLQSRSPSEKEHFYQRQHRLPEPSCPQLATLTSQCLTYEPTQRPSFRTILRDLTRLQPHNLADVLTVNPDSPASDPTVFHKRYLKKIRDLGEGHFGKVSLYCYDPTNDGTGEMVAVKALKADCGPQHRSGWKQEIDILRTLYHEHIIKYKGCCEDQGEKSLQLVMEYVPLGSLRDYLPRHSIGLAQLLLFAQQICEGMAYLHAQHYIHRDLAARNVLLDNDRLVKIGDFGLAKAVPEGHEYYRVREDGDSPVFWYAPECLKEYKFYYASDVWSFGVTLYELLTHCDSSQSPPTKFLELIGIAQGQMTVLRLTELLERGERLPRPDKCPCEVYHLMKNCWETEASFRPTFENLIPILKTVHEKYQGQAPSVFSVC

GI50 [nM] | Structure (SMILES)
205 | [2H]C([2H])([2H])NC(=O)c1cnc(NC(=O)C2CC2)cc1Nc1csc2cnn(C(C)C(F)(F)F)c(=O)c12 (single isomer, unassigned) [Example 185A, (R*)-6-(cyclopropanecarboxamido)-N-(methyl-d3)-4-((4-oxo-5-(1,1,1-trifluoropropan-2-yl)-4,5-dihydrothieno[2,3-d]pyridazin-3-yl)amino)nicotinamide]
912 | [2H]C([2H])([2H])NC(=O)c1cnc(NC(=O)C2CC2)cc1Nc1csc2cnn(C(C)C(F)(F)F)c(=O)c12 (single isomer, unassigned) [Example 185B, (S*)-6-(Cyclopropanecarboxamido)-N-(methyl-d3)-4-((4-oxo-5-(1,1,1-trifluoropropan-2-yl)-4,5-dihydrothieno[2,3-d]pyridazin-3-yl)amino)nicotinamide]
327 | [2H]C([2H])([2H])NC(=O)c1cnc(NC(=O)C2CC2)cc1Nc1cn(C)c2ccn(C(C)C(F)(F)F)c(=O)c12 (single isomer, unassigned) [Example 190B, (S*)-6-(Cyclopropanecarboxamido)-N-(methyl-d3)-4-((1-methyl-4-oxo-5-(1,1,1-trifluoropropan-2-yl)-4,5-dihydro-1H-pyrrolo[3,2-c]pyridin-3-yl)amino)nicotinamide]
241 | CNC(=O)c1cnc(NC(=O)C2CC2)cc1Nc1cn(CCOC)c2ccn([C@H](C)C(F)(F)F)c(=O)c12 (single isomer, unassigned) [Example 201A, (R*)-6-(Cyclopropanecarboxamido)-4-((1-(2-methoxyethyl)-4-oxo-5-(1,1,1-trifluoropropan-2-yl)-4,5-dihydro-1H-pyrrolo[3,2-c]pyridin-3-yl)amino)-N-(methyl-d3)nicotinamide]
96.2 | CNC(=O)c1cnc(NC(=O)C2CC2)cc1Nc1cn(C)c2ncn([C@H](C)C(F)(F)F)c(=O)c12 (single isomer, unassigned) [Example 234A, (R*)-6-(cyclopropanecarboxamido)-N-(methyl-d3)-4-((7-methyl-4-oxo-3-(1,1,1-trifluoropropan-2-yl)-4,7-dihydro-3H-pyrrolo[2,3-d]pyrimidin-5-yl)amino)nicotinamide]
599 | CNC(=O)c1cnc(NC(=O)C2CC2)cc1Nc1cn(C)c2ncn([C@@H](C)C(F)(F)F)c(=O)c12 (single isomer, unassigned) [Example 234B, (S*)-6-(cyclopropanecarboxamido)-N-(methyl-d3)-4-((7-methyl-4-oxo-3-(1,1,1-trifluoropropan-2-yl)-4,7-dihydro-3H-pyrrolo[2,3-d]pyrimidin-5-yl)amino)nicotinamide]
179 | CCn1cc(Nc2cc(NC(=O)C3CC3)ncc2C(=O)NC)c2c(=O)n([C@H](C)C(F)(F)F)cnc21 (single isomer, unassigned) [Example 254A, (R*)-6-(cyclopropanecarboxamido)-4-((7-ethyl-4-oxo-3-(1,1,1-trifluoropropan-2-yl)-4,7-dihydro-3H-pyrrolo[2,3-d]pyrimidin-5-yl)amino)-N-(methyl-d3)nicotinamide]
934 | CCn1cc(Nc2cc(NC(=O)C3CC3)ncc2C(=O)NC)c2c(=O)n([C@@H](C)C(F)(F)F)cnc21 (single isomer, unassigned) [Example 254B, (S*)-6-(cyclopropanecarboxamido)-4-((7-ethyl-4-oxo-3-(1,1,1-trifluoropropan-2-yl)-4,7-dihydro-3H-pyrrolo[2,3-d]pyrimidin-5-yl)amino)-N-(methyl-d3)nicotinamide]
483 | CNC(=O)c1cnc(NC(=O)C2CC2)nc1Nc1cn(C)c2ccn(C)c(=O)c12 [Example 1, 2-(Cyclopropanecarboxamido)-4-((1,5-dimethyl-4-oxo-4,5-dihydro-1H-pyrrolo[3,2-c]pyridin-3-yl)amino)-N-methylpyrimidine-5-carboxamide]
199 | [2H]C([2H])([2H])NC(=O)c1cnc(Nc2cnn(C3CC3)c2)nc1Nc1cccc(-c2ncn(C)n2)c1OC [Example 2, 2-[(1-Cyclopropylpyrazol-4-yl)amino]-4-[2-methoxy-3-(1-methyl-1,2,4-triazol-3-yl)anilino]-N-(trideuteromethyl)pyrimidine-5-carboxamide]
548 | [2H]C([2H])([2H])NC(=O)c1cnc(Nc2ccc(F)cc2)nc1Nc1cn(C)c2ccn(C)c(=O)c12 [Example 4, 4-((1,5-Dimethyl-4-oxo-4,5-dihydro-1H-pyrrolo[3,2-c]pyridin-3-yl)amino)-2-((4-fluorophenyl)amino)-N-(methyl-d3)pyrimidine-5-carboxamide]
1350 | CNC(=O)c1cnc(Nc2ccc(F)cn2)nc1Nc1cccc(-c2ncn(C)n2)c1OC [Example 5, 2-((5-Fluoropyridin-2-yl)amino)-4-((2-methoxy-3-(1-methyl-1H-1,2,4-triazol-3-yl)phenyl)amino)-N-methylpyrimidine-5-carboxamide]
897 | CNC(=O)c1cnc(Nc2ccc(F)cc2)nc1Nc1cccc(OC2CCOCC2)c1OC [Example 6, 2-((4-Fluorophenyl)amino)-4-((2-methoxy-3-((tetrahydro-2H-pyran-4-yl)oxy)phenyl)amino)-N-methylpyrimidine-5-carboxamide]
8020 | CNC(=O)c1cnc(NC(=O)C2CC2)nc1Nc1cccc(OC2CCOCC2)c1OC [Example 7, 2-(Cyclopropanecarboxamido)-4-((2-methoxy-3-((tetrahydro-2H-pyran-4-yl)oxy)phenyl)amino)-N-methylpyrimidine-5-carboxamide]
740 | CCn1ccc2c(c(Nc3nc(Nc4ccc(F)cc4F)ncc3C(=O)NC)cn2C)c1=O [Example 9, 2-((2,4-Difluorophenyl)amino)-4-((5-ethyl-1-methyl-4-oxo-4,5-dihydro-1H-pyrrolo[3,2-c]pyridin-3-yl)amino)-N-methylpyrimidine-5-carboxamide]
6410 | CNC(=O)c1cnc(NC(=O)C2CC2)cc1Nc1cccc(OC2CCOCC2)c1OC [Example 13, 6-(Cyclopropanecarboxamido)-4-((2-methoxy-3-((tetrahydro-2H-pyran-4-yl)oxy)phenyl)amino)-N-methylnicotinamide]
7820 | CNC(=O)c1nnc(Nc2ccc(F)cn2)cc1Nc1cccc(OC2CCOCC2)c1OC [Example 25, 6-((5-Fluoropyridin-2-yl)amino)-4-((2-methoxy-3-((tetrahydro-2H-pyran-4-yl)oxy)phenyl)amino)-N-methylpyridazine-3-carboxamide]
> 20000 | CNC(=O)c1nnc(NC(=O)C2CC2)cc1Nc1cccc2cc[nH]c(=O)c12 [Example 26, 6-(Cyclopropanecarboxamido)-N-methyl-4-((1-oxo-1,2-dihydroisoquinolin-8-yl)amino)pyridazine-3-carboxamide]
> 20000 | [2H]C([2H])([2H])NC(=O)c1cnc(Nc2ccc(F)cc2)nc1Nc1csc2ccn(C)c(=O)c12 [Example 29, 2-((4-Fluorophenyl)amino)-N-(methyl-d3)-4-((5-methyl-4-oxo-4,5-dihydrothieno [3,2-c]pyridin-3-yl)amino) pyrimidine-5-carboxamide]
199 | [2H]C([2H])([2H])NC(=O)c1cnc(Nc2cnn(C3CCOCC3)c2)nc1Nc1cccc(-c2ncn(C)n2)c1OC [Example 30, 4-((2-Methoxy-3-(1-methyl-1H-1,2,4-triazol-3-yl)phenyl)amino)-N-(methyl-d3)-2-((1-(tetrahydro-2H-pyran-4-yl)-1H-pyrazol-4-yl)amino)pyrimidine-5-carboxamide]
303 | [2H]C([2H])([2H])NC(=O)c1cnc(Nc2cnn(C3CCOC3)c2)nc1Nc1cccc(-c2ncn(C)n2)c1OC (stereo not shown) [Example 31, 4-((2-Methoxy-3-(1-methyl-1H-1,2,4-triazol-3-yl)phenyl)amino)-N-(methyl-d3)-2-((1-(tetrahydrofuran-3-yl)-1H-pyrazol-4-yl)amino)pyrimidine-5-carboxamide]
856 | CNC(=O)c1nnc2cc1Nc1cc(cc(-c3ncn(C)n3)c1OC)CN(C)Cc1cccc(n1)N2 [Example 32, 10-Methoxy-N,15-dimethyl-11-(1-methyl-1,2,4-triazol-3-yl)-2,4,5,8,15,21-hexazatetracyclo[15.3.1.13,7.19,13]tricosa-1(21),3(23),4,6,9,11,13(22),17,19-nonaene-6-carboxamide]
988 | CNC(=O)c1cnc2nc1Nc1cc(cc(-c3ncn(C)n3)c1OC)COCc1cc(cc(C(F)(F)F)c1)N2 [Example 37, 10-Methoxy-N-methyl-11-(1-methyl-1H-1,2,4-triazol-3-yl)-19-(trifluoromethyl)-15-oxa-2,4,8,23-tetraazatetracyclo[15.3.1.1^{3,7}.1^{9,13}]tricosa-1(20),3,5,7(23),9(22),10,12,17(21),18-nonaene-6-carboxamide]
831 | CNC(=O)c1cnc(Nc2ccc(F)cc2)nc1Nc1coc2ccn(C)c(=O)c12 [Example 38, 2-((4-Fluorophenyl)amino)-N-methyl-4-((5-methyl-4-oxo-4,5-dihydrofuro[3,2-c]pyridin-3-yl)amino)pyrimidine-5-carboxamide]
372 | [2H]C([2H])([2H])NC(=O)c1cnc(NC(=O)C2CC2)cc1Nc1cnn2c1C(=O)N(CC(F)(F)F)CC2 [Example 46, 6-(Cyclopropanecarboxamido)-N-(methyl-d3)-4-((4-oxo-5-(2,2,2-trifluoroethyl)-4,5,6,7-tetrahydropyrazolo[1,5-a]pyrazin-3-yl)amino) nicotinamide]

From patent US20250115597A1, “TYK2 INHIBITORS AND COMPOSITIONS AND METHODS THEREOF” (LYNK PHARMACEUTICALS CO. LTD., priority 2021, published 2025)
